Test results as given in the supplement of paper PMC10307832.

How the values were obtained:
Assay in all cases: relative viability (nuclei count vs DMSO), 5 days (fraction); higher = more cells survive
IU1-47 + Pictilisib = compound: CC1=CC(=C(N1C2=CC=C(C=C2)Cl)C)C(=O)CN3CCCCC3 [IU1-47] + CS(=O)(=O)N1CCN(Cc2cc3nc(-c4cccc5[nH]ncc45)nc(N4CCOCC4)c3s2)CC1 [Pictilisib] (partner 1 µM)
Procedure, shortened: (§1)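 Each reported value is a median over duplicate plates. It expresses relative viability: treated-well nuclei count divided by vehicle-well nuclei count. Lung cancer cell lines in 1536-well plates were dosed by pin tool a day after seeding, alone with one drug or with a fixed anchor-drug dose plus five library-drug doses (not always all listed) in √10 steps, and nuclei were counted after 5 days.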

FG-4592 + Foretinib = compound: Cc1nc(C(=O)NCC(=O)O)c(O)c2ccc(Oc3ccccc3)cc12 [FG-4592] + COc1cc2c(Oc3ccc(NC(=O)C4(C(=O)Nc5ccc(F)cc5)CC4)cc3F)ccnc2cc1OCCCN1CCOCC1 [Foretinib] (partner 0.25 µM)
Procedure, shortened: as §1

FG-4592 + Phenformin = compound: Cc1nc(C(=O)NCC(=O)O)c(O)c2ccc(Oc3ccccc3)cc12 [FG-4592] + N=C(N)NC(=N)NCCc1ccccc1 [Phenformin] (partner 250 µM)
Procedure, shortened: as §1

FG-4592 + Pemetrexed = compound: Cc1nc(C(=O)NCC(=O)O)c(O)c2ccc(Oc3ccccc3)cc12 [FG-4592] + Nc1nc2[nH]cc(CCc3ccc(C(=O)N[C@@H](CCC(=O)O)C(=O)O)cc3)c2c(=O)[nH]1 [Pemetrexed] (partner 0.2 µM)
Procedure, shortened: as §1

UMC-11
relative viability (IU1-47 + Pictilisib; first compound 0.08 µM): 0.678 | relative viability (IU1-47 + Pictilisib; first compound 0.253 µM): 0.75 | relative viability (IU1-47 + Pictilisib; first compound 0.8 µM): 0.868 | relative viability (IU1-47 + Pictilisib; first compound 2.53 µM): 1.01 | relative viability (IU1-47 + Pictilisib; first compound 8 µM): 0.743 | relative viability (FG-4592 + Foretinib; first compound 0.08 µM): 1.06 | relative viability (FG-4592 + Foretinib; first compound 0.253 µM): 1.03 | relative viability (FG-4592 + Foretinib; first compound 0.8 µM): 0.918 | relative viability (FG-4592 + Foretinib; first compound 2.53 µM): 1.03 | relative viability (FG-4592 + Foretinib; first compound 8 µM): 0.671 | relative viability (FG-4592 + Phenformin; first compound 0.08 µM): 0.323 | relative viability (FG-4592 + Phenformin; first compound 0.253 µM): 0.291 | relative viability (FG-4592 + Phenformin; first compound 0.8 µM): 0.322 | relative viability (FG-4592 + Phenformin; first compound 2.53 µM): 0.314 | relative viability (FG-4592 + Phenformin; first compound 8 µM): 0.395 | relative viability (FG-4592 + Pemetrexed; first compound 0.08 µM): 0.738 | relative viability (FG-4592 + Pemetrexed; first compound 0.253 µM): 0.867 | relative viability (FG-4592 + Pemetrexed; first compound 0.8 µM): 0.843 | relative viability (FG-4592 + Pemetrexed; first compound 2.53 µM): 0.791 | relative viability (FG-4592 + Pemetrexed; first compound 8 µM): 0.688
